Drawing on patent US20040248950A1, “Apo ai expression accelerating agent” (priority 2004, published 2004), this text covers EC (2-fold luciferase activity) and melting point for 32 compounds.

Data set [1] concerns promoter region of the gene encoding human apoAI. Put plainly: Activity to enhance the production of human apoAI: apoAI promoter-luciferase reporter assay in HepG2 cells. The format is cell-based. The settings on record: minimum effective dose: concentration that intensified luciferase activity twice compared to control, 24 hours incubation, 0 to 10 μg/mL, read-out: MED. On the procedure:
Activity to Enhance the Production of Human apoAI
The promoter region of the gene encoding human apoAI was isolated and ligated upstream the structure gene of firefly luciferase to construct a reporter plasmid. The reporter plasmid and a marker plasmid conferring the neomycin resistance were co-infected to cell lines derived from human hepatoma, HepG2 cells, and the cell lines were incubated in a selection medium comprising DMEM medium containing 10% fetal calf serum supplemented with G418 (Final concentration: 0.7 mg/mL, Gibco) to give established strains that stably express the reporter molecule. The strains were seeded to a 96-well culture plates at a density of 50,000 cells per well, and incubated for 48 hours at 37° C. under 5% carbon dioxide. Then, a solution of the compounds according to the invention in DMSO was added to the wells at a final concentration of 0 to 10 μg/mL. After further incubation for 24 hours, the cells were added with a luciferase assay reagent (Piccagene LT 7.5 registered trade mark, Toyo Ink, KK), and the luciferase activity was determined using a luminometer (MicroBetaTM TRILUX, 1 sec/well, Wallac). The concentration of the compounds, which intensified the luciferase activity twice compared to that of control (DMSO without any compound of the invention added) was set as the minimal effective dose (MED).

For `Cc1ccc(-c2csc(-c3ccccc3)n2)cc1` [TZ24-3], the EC (2-fold luciferase activity) in data set [1] came out at 0.45 µM. The term melting point denotes the temperature, or range, at which the solid turns liquid. The compound `C(=C\c1nnc(-c2ccccc2)o1)/c1ccco1` [Compound 134OD25-23, 2-[2-(2-Furyl)vinyl]-5-[1,3,4]-oxadiazole] showed a melting point of 127 to 130 °C. Also, the EC (2-fold luciferase activity) in data set [1] was 0.82 µM. In turn, `Cc1ccc(-c2nnc(-c3ccco3)s2)cc1` [Compound 134TD25-5, 2-(2-Furyl)-5-p-tolyl-[1,3,4]-thiadiazole] showed a melting point of 110 to 113 °C. Also, in data set [1], the EC (2-fold luciferase activity) stood at 0.98 µM. Consider `COc1cccc(-c2nnc(-c3ccoc3)o2)c1` [Compound 134OD25-32, 2-(3-Furyl)-5-(3-methoxyphenyl)-[1,3,4]-oxadiazole], for which the melting point lay in the range of 70 to 71 °C. In addition, the EC (2-fold luciferase activity) in data set [1] worked out at 2.8 µM. The compound `c1ccc(-c2nnc(-c3cc4ccccc4o3)o2)cc1` [Compound 134OD25-28] came in with a melting point of 148 to 149 °C. The EC (2-fold luciferase activity) in data set [1] was determined as 1.1 µM. For the compound `CC(C)Oc1cccc(-c2nnc(-c3ccoc3)s2)c1` [Compound 134TD25-4], in data set [1], the EC (2-fold luciferase activity) was 0.58 µM. In the case of `CC(C)Oc1cccc(-c2nnc(-c3ccoc3)o2)c1` [Compound 134OD25-34], the EC (2-fold luciferase activity) in data set [1] worked out at 1.5 µM.

With `Clc1ccc(-c2nnn(-c3ccc(Cl)cc3)n2)cc1` [TZ-4], in data set [1], the EC (2-fold luciferase activity) worked out at 0.53 µM.

`COc1cccc(-c2cc(-c3ccoc3)on2)c1` [IX35-9, 5-(Furan-3-yl)-3-(3-methoxyphenyl)-isoxazole] showed a melting point of 36 to 37 °C. Also, the EC (2-fold luciferase activity) in data set [1] came out at 0.53 µM.

As to `COc1ccc(-c2nc(-c3ccco3)cs2)cc1` [TZ24-6, 4-(2-Furyl)-2-(4-methoxyphenyl)thiazole], the EC (2-fold luciferase activity) in data set [1] worked out at 1.2 µM. Regarding `c1ccc(-c2nnc(-c3ccccn3)o2)cc1` [Compound 134OD25-46, 2-(2-Pyridyl)-5-phenyl-1,3,4-oxadiazole], in data set [1], the EC (2-fold luciferase activity) turned out to be 0.37 µM. Take `c1ccc(-c2nc(-c3ccc(-c4csnn4)cc3)no2)cc1` [Compound 124OD35-15]: in data set [1], the EC (2-fold luciferase activity) was 0.18 µM.

For the compound `COc1ccc(-c2nc(-c3ccccc3)no2)cc1` [Compound 124OD35-12, 5-(4-Methoxyphenyl)-3-phenyl-1,2,4-oxadiazole], the EC (2-fold luciferase activity) in data set [1] came out at 0.07 µM. Regarding `COc1ccc(-n2nnc(-c3ccccc3)n2)cc1` [TZ-7], in data set [1], the EC (2-fold luciferase activity) was 0.22 µM. The same measure, in the same setting: as for `c1ccc(-c2cn(-c3ccccc3)nn2)cc1` [Compound 123TA14-2], the figure is 0.59 µM; as for `c1ccc(Nc2nc(-c3ccccc3)ns2)cc1` [Compound 124TD35-6], 0.93 µM. As for `COc1ccc(-c2nc(-c3ccccc3)co2)cc1` [OX24-5], in data set [1], the EC (2-fold luciferase activity) is 0.32 µM.

For `CN(C)c1ccc(-c2nnc(-c3ccccc3)o2)cc1` [Compound 134OD25-15, 2-(4-Dimethylaminophenyl)-5-phenyl-1,3,4-oxadiazole], the melting point fell in the range of 135 to 140 °C. The EC (2-fold luciferase activity) in data set [1] came to 0.27 µM. As for `c1ccc(-c2cc(-c3ccccc3)on2)cc1` [IX35-1], in data set [1], the EC (2-fold luciferase activity) came to 0.75 µM.

Turning to `Cc1cccc(-c2nnc(-c3cccc(C)c3)o2)c1` [Compound 134OD25-40, 2,5-Bis (3-tolyl)-1,3,4-oxadiazole], the melting point lay within 82 to 83 °C. In addition, in data set [1], the EC (2-fold luciferase activity) came out at 0.17 µM. `c1ccc(-c2ccc(-c3ccccc3)o2)cc1` [Compound F25-10]: the EC (2-fold luciferase activity) in data set [1] is 2.5 µM. Regarding `COc1cccc(-c2nnc(N3CCOCC3)s2)c1` [Compound 134TD25-1], the EC (2-fold luciferase activity) in data set [1] was 0.89 µM. As for `Cc1ccc(-n2nnc(-c3ccccc3)n2)cc1` [TZ-3], in data set [1], the EC (2-fold luciferase activity) is 0.2 µM. Same read-out and setting: as for `Cc1ccc(-n2nnc(-c3ccc(Cl)cc3)n2)cc1` [TZ-1], the figure is 0.33 µM; as for `COc1ccc(-c2nc(-c3ccncc3)no2)cc1` [Compound 124OD35-13], 0.7 µM; as for `COc1ccc(-c2cc(-c3ccc(OC)cc3)n(C)n2)cc1` [PZ35-4, 3,5-Di(4-methoxyphenyl)-1-methylpyrazole], 0.41 µM. Regarding `COc1ccc(-c2nc(-c3ccccn3)cs2)cc1` [TZ24-11], in data set [1], the EC (2-fold luciferase activity) amounted to 1.2 µM. As to `COc1ccc(-c2nc(-c3ccccc3)cs2)cc1` [TZ24-5, 2-(4-Methoxyphenyl)-4-phenylthiazole], the EC (2-fold luciferase activity) in data set [1] came out at 3.7 µM. On the same count and under the same terms, the same measure for `c1ccc(-c2coc(-c3ccccc3)n2)cc1` [OX24-8]: 2.9 µM.

For the compound `CSc1ccc(-c2nnc(-c3ccccc3)o2)cc1` [Compound 134OD25-14], the melting point fell in the range of 120 to 122 °C. Also, the EC (2-fold luciferase activity) in data set [1] was determined as 0.56 µM. Consider `c1ccc(-c2cc(-c3ccccn3)[nH]n2)nc1` [PZ35-5], for which the EC (2-fold luciferase activity) in data set [1] turned out to be 1.5 µM. Same read-out and setting: the same measure for `Cc1ccc(-c2nnn(-c3ccc(Cl)cc3)n2)cc1` [TZ-2]: 0.42 µM.
